US20250099420A1, “SMALL MOLECULE MODULATORS OF GPR139 COMPLEX” (University of Florida Research Foundation, Incorporated, priority 2022, published 2025)
Read-outs that look alike come from different tables or passages of the source.

Tests used:
GPR139 = target: T1, GPR139 (Homo sapiens, UniProt Q6DWJ6); assay: GPR139 Agonist titration / agonist counterscreen assay (calcium detection, HEK-GPR139 cells); assay type: cell-based; parameters: expressed in transfected cells; host or cells: HEK Aequorin cells, Maxcyte transient transfection; conditions: GPR139 Agonist Activity; for EC50: read-out: EC50; for Averaged Max % Response (±St. Dev.): activity relative to known control
T1 sequence (Q6DWJ6 1-353): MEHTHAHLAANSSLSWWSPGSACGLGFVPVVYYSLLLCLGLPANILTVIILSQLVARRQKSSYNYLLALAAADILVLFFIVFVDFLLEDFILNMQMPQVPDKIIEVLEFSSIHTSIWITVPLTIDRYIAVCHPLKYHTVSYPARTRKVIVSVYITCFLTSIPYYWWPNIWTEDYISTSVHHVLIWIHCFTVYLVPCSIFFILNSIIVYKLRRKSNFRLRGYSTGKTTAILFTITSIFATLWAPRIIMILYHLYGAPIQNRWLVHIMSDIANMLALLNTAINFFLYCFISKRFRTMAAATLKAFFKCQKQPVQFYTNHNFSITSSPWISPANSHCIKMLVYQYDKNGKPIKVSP
Method: GPR activity was assessed using a calcium detection assay. […] Negative control samples were treated with DMSO. […] Intracellular calcium was measured using Calcium 5.

parental HEK cells = assay: HEK parental Agonist Counterscreen Assay (non-transfected cells); assay type: cell-based; conditions: for Averaged Max % Response (±St. Dev.): activity relative to known control
From the text: The high control for the agonist counterscreen was Forskolin not acetylcholine.

[1] = Homo sapiens, HEK293, HEK Agonist Activity section of Table 4 (parental HEK counterscreen)
[2] = values printed in E-notation without unit
[3] = HEK Agonist Activity section of Table 4 (parental HEK counterscreen)
[4] = Homo sapiens, HEK293, HEK Agonist Activity, parental non-transfected HEK cells

Row | SMILES | Efficiency Ligand (GPR139) | Hill Slope (GPR139) | Lipophilic Efficiency (logD) (GPR139) | Lipophilic Efficiency (logP) (GPR139) | Averaged Max % Response (±St. Dev.) (GPR139) [%] | Lipophilic Efficiency (logD) (parental HEK cells; HEK Agonist Activity section) | Lipophilic Efficiency (logP) (parental HEK cells; HEK Agonist Activity section) | Lipophilic Efficiency (logD) (GPR139; based on logD) | Lipophilic Efficiency (logP) (GPR139; based on logP) | Hill Slope (GPR139; fitted dose-response curve) | Efficiency Ligand (GPR139; ligand efficiency) | EC50 (GPR139; [2]) [nM] | Averaged Max % Response (±St. Dev.) (parental HEK cells; HEK Agonist Activity section) [%] | EC50 (parental HEK cells; [1]) [nM] | other results
1 | CCCC1(CCC)NC(=O)N(CC(=O)NCc2ccc(Cl)cc2)C1=O [SR-01000050884] | 0.36 | 0.73 | 3.46 | 3.46 | 89.45 ± 3.28 | 1.88 | 1.88 | – | – | – | – | – | 5.22 ± 1.83 | > 15400 | EC50 (GPR139; HEK-GPR139 cells): 408 nM
2 | CC(C)C(C)(C#N)NC(=O)CSc1nnc(Cc2cccc3ccccc23)n1N (stereo not drawn) [SR-01000052065] | – | – | – | – | 98.20 ± 7.98 | 2.71 | 2.62 | 4.63 | 4.54 | 0.53 | 0.33 | 182 | 8.92 ± 9.62 | – | EC50 (parental HEK cells; [3]): > 15200 nM
3 | Cc1ccc2c(CC(=O)NNC(=O)CC34CC5CC(CC(C5)C3)C4)coc2c1 [SR-01000054849] | – | – | – | – | 93.14 ± 10.62 | 1.41 | 1.41 | 3.67 | 3.67 | 0.47 | 0.35 | 81.6 | 1.19 ± 3.75 | – | EC50 (parental HEK cells; [3]): > 14800 nM
4 | COc1ccc2cc(C3(C)CC(=O)N(CC(=O)N(CC(C)C)CC(C)C)C3=O)ccc2c1 (stereo not drawn) [SR-01000054961] | 0.26 | 0.85 | 2.43 | 2.43 | 79.59 ± 15.93 | 1.27 | 1.27 | – | – | – | – | – | 6.24 ± 6.42 | > 14100 | –
5 | CC1(c2ccc(Cl)cc2)NC(=O)N(CC(=O)NCc2cccs2)C1=O (stereo not drawn) [SR-01000058107] | – | – | – | – | 95.61 ± 13.32 | – | – | 5.35 | 5.35 | 0.85 | 0.43 | 23.3 | – | – | Lipophilic Efficiency (logD) (parental HEK cells; HEK Agonist Activity): 2.55; Lipophilic Efficiency (logP) (parental HEK cells; HEK Agonist Activity): 2.55; Averaged Max % Response (±St. Dev.) (parental HEK cells; HEK Agonist Activity): 4.84 ± 7.51%; EC50 (parental HEK cells; [4]): > 14900 nM
6 | O=C(CSc1ccc(Cl)cc1)NNC(=O)c1ccc(O)cc1 [SR-01000060349] | – | – | – | – | 123.74 ± 9.56 | – | – | 5.31 | 5.26 | 0.81 | 0.50 | 16.2 | – | – | Lipophilic Efficiency (logD) (parental HEK cells; HEK Agonist Activity): 2.34; Lipophilic Efficiency (logP) (parental HEK cells; HEK Agonist Activity): 2.30; Averaged Max % Response (±St. Dev.) (parental HEK cells; HEK Agonist Activity): 36.27 ± 9.28%; EC50 (parental HEK cells; [4]): > 15100 nM
7 | CCCCNC(=O)NNC(=O)CSc1cc(C)c(Br)cc1C [SR-01000061818] | – | – | – | – | 110.53 ± 3.36 | – | – | 4.41 | 4.41 | 0.71 | 0.50 | 16.3 | – | – | Lipophilic Efficiency (logD) (parental HEK cells; HEK Agonist Activity): 1.46; Lipophilic Efficiency (logP) (parental HEK cells; HEK Agonist Activity): 1.46; Averaged Max % Response (±St. Dev.) (parental HEK cells; HEK Agonist Activity): 3.00 ± 9.38%; EC50 (parental HEK cells; HEK Agonist Activity, parental non-transfected HEK cells): > 14500 nM
8 | C=C(CC1C(=O)CC(c2ccccc2)(c2ccccc2)C1=O)C(C)CC1=CC=CC1 (stereo not drawn) [SR-01000062305] | 0.27 | – | 2.66 | 2.66 | 121.63 ± 9.56 | 1.70 | 1.70 | – | – | – | – | – | −4.71 ± 5.40 | > 14800 | –
9 | O=C(CN1C(=O)OC(O)(c2ccc(Cl)cc2Cl)C1=O)Nc1ccccc1Cl (stereo not drawn) [SR-01000062419] | 0.33 | 0.63 | 2.50 | 2.49 | 105.27 ± 9.38 | 0.98 | 0.97 | – | – | – | – | – | 19.92 ± 2.49 | > 14500 | EC50 (GPR139; HEK-GPR139 cells): 438 nM
10 | O=C(CN1C(=O)NC2(CCc3ccccc3C2)C1=O)N1CCc2ccccc2C1 (stereo not drawn) [SR-01000062726] | – | – | – | – | 103.63 ± 9.70 | 2.40 | 2.40 | 4.25 | 4.25 | 0.89 | 0.32 | 205 | −12.60 ± 9.55 | > 14500 | –
11 | O=C(CNC(=O)c1ccc(Br)o1)NC1CCCc2ccccc21 (stereo not drawn) [SR-01000064101] | 0.38 | 1.15 | 4.09 | 4.09 | 90.33 ± 2.09 | 2.64 | 2.64 | – | – | – | – | – | 10.45 ± 2.67 | > 14900 | EC50 (GPR139; HEK-GPR139 cells): 527 nM
12 | CC1(c2ccc3c(c2)OCO3)NC(=O)N(CC(=O)NC2CCCC2)C1=O (stereo not drawn) [SR-01000065547] | 0.34 | 0.59 | 5.32 | 5.32 | 87.19 ± 17.95 | 3.84 | 3.84 | – | – | – | – | – | 2.31 ± 13.81 | > 14100 | EC50 (GPR139; HEK-GPR139 cells): 465 nM
13 | O=C(CCCOc1ccc(Cl)cc1Cl)NNC(=O)Cc1ccc2c(c1)OCCO2 [SR-01000065653] | – | – | – | – | 89.15 ± 7.00 | 1.88 | 1.87 | 4.06 | 4.05 | 1.10 | 0.34 | 94.4 | −8.07 ± 6.14 | – | EC50 (parental HEK cells; [3]): > 14100 nM

Now from value to molecule, other results behind:

Row | Efficiency Ligand (GPR139) | Hill Slope (GPR139) | Lipophilic Efficiency (logD) (GPR139) | Lipophilic Efficiency (logP) (GPR139) | Averaged Max % Response (±St. Dev.) (GPR139) [%] | Lipophilic Efficiency (logD) (parental HEK cells; HEK Agonist Activity section) | Lipophilic Efficiency (logP) (parental HEK cells; HEK Agonist Activity section) | Lipophilic Efficiency (logD) (GPR139; based on logD) | Lipophilic Efficiency (logP) (GPR139; based on logP) | Hill Slope (GPR139; fitted dose-response curve) | Efficiency Ligand (GPR139; ligand efficiency) | EC50 (GPR139; [2]) [nM] | SMILES | Averaged Max % Response (±St. Dev.) (parental HEK cells; HEK Agonist Activity section) [%] | EC50 (parental HEK cells; [1]) [nM] | other results
14 | 0.33 | 0.74 | 3.45 | 3.43 | 96.13 ± 10.69 | 2.25 | 2.23 | – | – | – | – | – | COc1ccc(Cl)cc1C(=O)NNC(=O)CCc1ccc([N+](=O)[O-])cc1 [SR-01000054340] | 20.66 ± 8.49 | > 14200 | –
15 | 0.30 | 0.89 | 4.08 | 4.08 | 81.95 ± 3.88 | 2.56 | 2.55 | – | – | – | – | – | COc1cc(C(=O)NNC(=O)COc2ccc3ccccc3c2)cc(OC)c1OC [SR-01000056004] | −16.39 ± 11.45 | > 15100 | EC50 (GPR139; HEK-GPR139 cells): 450 nM
16 | – | – | – | – | 119.47 ± 9.11 | 2.66 | 2.66 | 5.10 | 5.10 | 0.52 | 0.35 | 50.9 | COc1cc(C(C)=O)ccc1OCC(=O)OCC(=O)NCCCc1ccccc1 [SR-01000056458] | 19.25 ± 6.92 | > 14100 | –
17 | – | – | – | – | 103.66 ± 2.94 | – | – | 4.73 | 4.73 | 0.17 | 0.37 | 40.5 | CC1(c2ccc3ccccc3c2)NC(=O)C(CC(=O)NCc2ccco2)C1=O (stereo not drawn) [SR-01000058120] | – | – | Lipophilic Efficiency (logD) (parental HEK cells; HEK Agonist Activity): 2.18; Lipophilic Efficiency (logP) (parental HEK cells; HEK Agonist Activity): 2.18; Averaged Max % Response (±St. Dev.) (parental HEK cells; HEK Agonist Activity): 11.91 ± 6.77%; EC50 (parental HEK cells; [4]): > 14300 nM
18 | – | – | – | – | 120.81 ± 8.57 | – | – | 4.01 | 4.00 | 1.00 | 0.43 | 12 | COc1ccccc1NC(=O)NNC(=O)CSc1cc(C)c(Br)cc1C [SR-01000061624] | – | – | Lipophilic Efficiency (logD) (parental HEK cells; HEK Agonist Activity): 0.94; Lipophilic Efficiency (logP) (parental HEK cells; HEK Agonist Activity): 0.93; Averaged Max % Response (±St. Dev.) (parental HEK cells; HEK Agonist Activity): 13.43 ± 5.07%; EC50 (parental HEK cells; [4]): > 14100 nM
19 | – | – | – | – | 128.31 ± 15.25 | 1.34 | 1.10 | 3.75 | 3.51 | 0.74 | 0.36 | 58.8 | O=C(CN1CCN(C/C=C/c2ccccc2)CC1)NCCCc1ccccc1 [SR-01000062290] | 11.38 ± 4.42 | > 14900 | –
